Patent US20040248887A1, “Inhibitors of cathepsin S” (IRM LLC, priority 2003, published 2004)
Read-outs that look alike come from different tables or passages of the source.

Assays:
Format in all cases: biochemical
[1] = target: Cathepsin B (Homo sapiens, UniProt P07858); test: Cathepsin B inhibition, fluorogenic peptide substrate kinetic assay; conditions: Table III; Cathepsin B inhibition constant, pH5.5; read-out: Ki Cat. B
Procedure: The optimal substrate for cathepsin B, acetyl-histidine-proline-valine-lysine-amino carbamoyl coumarin, was identified from screening a combinatorial library of fluorogenic peptide substrates (Harris, J. L., B. J. Backes, et al., Proc Natl Acad Sci USA 2000, 97(14), 7754-9). Kinetic measurements are performed in a total reaction volume of 30 μl in 384-well microtiter plates. Cathepsin B, at a final concentration of 1.5 nM (active site), is incubated with the compounds at twelve varying concentrations in a buffer containing 100 mM NaAc (pH5.5), 1 mM EDTA, 100 mM NaCl, 0.01% Brij-35 for 20 minutes at room temperature. Control reactions in the absence of inhibitor are performed in replicates of 24. The reactions are initiated by adding the substrate, acetyl-histidine-proline-valine-lysine-amino carbamoyl coumarin, to a final concentration of 10 μM. The rate of substrate hydrolysis is measured by monitoring the increase in fluorescence at an excitation wavelength of 380 nm and an emission wavelength of 450 nm that results from cleavage of the aniline bond in the substrate by the enzyme. The apparent inhibition constants for the compounds are determined from the enzyme progress curves (Kuzmie, P., K. C. Elrod, et al., Anal Biochem 2000, 286(1), 45-50) and are then used to calculate the inhibition constants for competitive inhibitors.

[2] = target: Cathepsin S (Homo sapiens, UniProt P25774); test: Cathepsin S inhibition, fluorogenic peptide substrate kinetic assay; conditions: Cathepsin S inhibition constant, pH5.5, read-out: Ki Cat. S
Chain of Cathepsin S (P25774 115-331, species assumed): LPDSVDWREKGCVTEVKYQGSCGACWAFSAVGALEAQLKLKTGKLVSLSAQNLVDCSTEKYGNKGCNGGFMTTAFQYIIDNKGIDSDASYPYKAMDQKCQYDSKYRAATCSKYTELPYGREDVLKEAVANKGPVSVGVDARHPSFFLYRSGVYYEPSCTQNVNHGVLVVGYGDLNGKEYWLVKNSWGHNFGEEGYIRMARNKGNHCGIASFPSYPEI
Method in brief: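 Ki values derive from apparent constants fitted to progress curves, corrected for competition with substrate via [S] and Km. Kinetics were monitored at 380 nm excitation/450 nm emission, after substrate addition (Ac-HPVK-ACC, 50 μM final) to start the reaction.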

[3] = target: T1, Cathepsin K (Homo sapiens, UniProt P43235); test: Cathepsin K inhibition, fluorogenic peptide substrate kinetic assay; conditions: Table III; Cathepsin K inhibition constant, pH5.5; read-out: Ki Cat. K
T1 sequence (P43235 115-329): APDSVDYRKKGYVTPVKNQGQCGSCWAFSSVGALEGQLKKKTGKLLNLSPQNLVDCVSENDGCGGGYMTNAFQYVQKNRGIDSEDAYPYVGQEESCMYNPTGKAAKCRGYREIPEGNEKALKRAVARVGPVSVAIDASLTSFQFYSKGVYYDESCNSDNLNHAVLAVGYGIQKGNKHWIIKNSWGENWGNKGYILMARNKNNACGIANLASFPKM
Procedure: (§1) The optimal substrate for cathepsin K, acetyl-lysine-histidine-proline-lysine-amino carbamoyl coumarin, was identified from screening a combinatorial library of fluorogenic peptide substrates (Harris, J. L., B. J. Backes, et al., Proc Natl Acad Sci U S A 2000, 97(14), 7754-9). Kinetic measurements are performed in a total reaction volume of 30 μl in 384-well microtiter plates. […] The reactions are initiated by adding the substrate, acetyl-lysine-histidine-proline-lysine-amino carbamoyl coumarin, to a final concentration of 40 μM. The rate of substrate hydrolysis is measured by monitoring the increase in fluorescence at an excitation wavelength of 380 nm and an emission wavelength of 450 nm that results from cleavage of the aniline bond in the substrate by the enzyme. The apparent inhibition constants for the compounds are determined from the enzyme progress curves (Kuzmic, P., K. C. Elrod, et al., Anal Biochem 2000, 286(1), 45-50) and are then used to calculate the inhibition constants for competitive inhibitors.

[4] = target: Cathepsin L (Homo sapiens, UniProt P07711); test: Cathepsin L inhibition, fluorogenic peptide substrate kinetic assay; conditions: Table III; Cathepsin L inhibition constant, pH5.5; read-out: Ki Cat. L
Chain of Cathepsin L (P07711 114-333, species assumed): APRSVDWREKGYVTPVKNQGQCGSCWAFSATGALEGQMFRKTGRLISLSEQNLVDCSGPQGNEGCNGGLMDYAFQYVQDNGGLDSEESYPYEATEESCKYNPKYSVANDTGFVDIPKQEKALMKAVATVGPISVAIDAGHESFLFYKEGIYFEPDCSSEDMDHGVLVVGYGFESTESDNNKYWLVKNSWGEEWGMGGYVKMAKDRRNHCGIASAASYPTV
Procedure: as §1, with “Kinetic” for “The optimal substrate for cathepsin K, acetyl-lysine-histidine-proline-lysine-amino carbamoyl coumarin, was identified from screening a combinatorial library of fluorogenic peptide substrates (Harris, J. L., B. J. Backes, et al., Proc Natl Acad Sci U S A 2000, 97(14), 7754-9). Kinetic”, “acetyl-histidine-lysine-phenylalanine-lysine-amino” for “acetyl-lysine-histidine-proline-lysine-amino”, “20” for “40”

SMILES	Ki [1] [µM]	Ki ([2]; Table II) [µM]	Ki ([2]; Table III) [µM]	Ki [3] [µM]	Ki [4] [µM]
COc1cccc(C(=O)N[C@@H](CCC2CCCCC2)C(=O)N[C@H](CN2CCc3cc(F)ccc32)c2ccccc2)c1 [Compound 51, (S,S)-N-{3-Cyclohexyl-1-[2-(5-fluoro-2,3-dihydro-indol-1-yl)-1-phenyl-ethylcarbamoyl]-propyl}-3-methoxy-benzamide]	> 10	–	–	–	–
C[C@@H](CNc1ccc(OC(F)(F)F)cc1)NC(=O)[C@H](CC1CCCC1)NC(=O)O[C@@H]1CCOC1 [Compound 191, (S,S)-{2-Cyclopentyl-1-[1-methyl-2-(4-trifluoromethoxy-phenylamino)-ethylcarbamoyl]-ethyl}-carbamic acid tetrahydrofuran-3-(R)-yl ester]	> 10	< 0.1	< 0.1	< 10	> 10
C[C@@H](CNc1cc(F)ccc1F)NC(=O)[C@H](CC1CCCCC1)NC(=O)c1ccc(-c2cccc(F)c2)o1 [Compound 91, 5-(3-Fluoro-phenyl)-furan-2-carboxylic acid {2-cyclohexyl-1-(S)-[2-(2,5-difluoro-phenylamino)-1-(S)-methyl-ethylcarbamoyl]-ethyl}-amide]	< 10	< 0.1	< 0.1	< 10	< 1
Cc1cccc(C(=O)N[C@@H](CC2CCCC2)C(=O)NCCN2CCc3cc(F)ccc32)c1 [Compound 201, (S)-N-{2-Cyclopentyl-1-[2-(5-fluoro-2,3-dihydro-indol-1-yl)-ethylcarbamoyl]-ethyl}-3-methyl-benzamide]	> 10	< 0.1	< 0.1	< 10	< 1
COC(=O)c1cccc(NC[C@H](C)NC(=O)[C@H](CC2CCCCC2)NC(=O)c2ccc(-c3cccc(F)c3)o2)c1 [Compound 110, 3-[2-(S)-(3-Cyclohexyl-2-(S)-{[5-(3-fluoro-phenyl)-furan-2-carbonyl]-amino}-propionylamino)-propylamino]-benzoic acid methyl ester]	> 10	< 1	< 1	< 10	< 10
Cc1cccc(S(=O)(=O)N[C@@H](CC2CCCCC2)C(=O)N[C@@H](C)CN2CCc3cc(F)ccc32)c1 [Compound 251, (S,S)-3-Cyclohexyl-N-[2-(5-fluoro-2,3-dihydro-indol-1-yl)-1-methyl-ethyl]-2-(toluene-3-sulfonylamino)-propionamide]	> 10	< 0.1	< 0.1	> 10	< 10
C[C@@H](CNc1ccccc1C(N)=O)NC(=O)[C@H](CC1CCCCC1)NC(=O)c1ccc(-c2cccc(F)c2)o1 [Compound 121, 5-(3-Fluoro-phenyl)-furan-2-carboxylic acid {1-(S)-[2-(2-carbamoyl-phenylamino)-1-(S)-methyl-ethylcarbamoyl]-2-cyclohexyl-ethyl}-amide]	< 10	< 1	< 1	< 10	< 10
C[C@@H](CNc1ccc(OC(F)(F)F)cc1)NC(=O)[C@H](CC1CCCCC1)NS(=O)(=O)c1cccc(Cl)c1 [Compound 181, (S,S)-2-(3-Chloro-benzenesulfonylamino)-3-cyclohexyl-N-[1-methyl-2-(4-trifluoromethoxy-phenylamino)-ethyl]-propionamide]	> 10	< 0.1	< 0.1	> 10	< 10
Cn1nc(C(F)(F)F)cc1-c1ccc(S(=O)(=O)N[C@@H](CC2CCCCC2)C(=O)NCCN2CCc3cc(F)ccc32)s1 [Compound 231, (S)-3-Cyclohexyl-N-[2-(5-fluoro-2,3-dihydro-indol-1-yl)-ethyl]-2-[5-(2-methyl-5-trifluoromethyl-2H-pyrazol-3-yl)-thiophene-2-sulfonylamino]-propionamide]	> 10	< 0.1	< 0.1	> 10	> 10
O=C(NC(CCC1CCCCC1)C(=O)NC(COCc1ccccc1)CN1CCc2cc(F)ccc21)c1cc2ccccc2[nH]1 (mixture of isomers) [Compound 41, 1H-Indole-2-carboxylic acid {(1S)-[2-benzyloxy-(1R)-(5-fluoro-2,3-dihydro-indol-1-ylmethyl)-ethylcarbamoyl]-3-cyclohexyl-propyl}-amide]	< 1	< 0.1	< 0.1	> 10	< 1
COc1ccc(NCC(C)NC(=O)[C@H](CC(C)C)NC(=O)c2cccc(C)c2)cc1 (mixture of isomers) [Compound 21, N-{1-(S)-[2-(4-Methoxy-phenylamino)-1-methyl-ethylcarbamoyl]-3-methyl-butyl}-3-methyl-benzamide]	> 10	–	–	–	–
C[C@@H](CNc1ccc(OC(F)(F)F)cc1)NC(=O)[C@H](CC1CCCCC1)NC(=O)c1cnn(-c2cccc(F)c2)c1 [Compound 141, 1-(3-Fluoro-phenyl)-1H-pyrazole-4-carboxylic acid {2-cyclohexyl-1-(S)-[1-(S)-methyl-2-(4-trifluoromethoxy-phenylamino)-ethylcarbamoyl]-ethyl}-amide]	> 10	< 0.1	< 0.1	> 10	< 10
CS(=O)(=O)Nc1ccc(C(=O)N[C@@H](CC2CCCCC2)C(=O)NCCN2CCc3cc(F)ccc32)cc1 [Compound 81, N-(S)-{2-cyclohexyl-1-[2-(5-fluoro-2,3-dihydro-indol-1-yl)-ethylcarbamoyl]-ethyl}-4-methanesulfonylamino-benzamide]	> 10	< 0.1	< 0.1	< 10	< 10
Cc1noc(C)c1NC(=O)N[C@@H](CC1CCCCC1)C(=O)NCCN1CCc2cc(F)ccc21 [Compound 221]	> 10	< 1	< 1	> 10	> 10
C[C@@H](CNc1cccc(C(N)=O)c1)NC(=O)[C@H](CC(C)(C)C)NC(=O)c1ccc(-c2cccc(F)c2)o1 [Compound 131, 5-(3-Fluoro-phenyl)-furan-2-carboxylic acid {1-(S)-[2-(3-carbamoyl-phenylamino)-1-(S)-methyl-ethylcarbamoyl]-3,3-dimethyl-butyl}-amide]	> 10	< 0.1	< 0.1	< 1	> 10
CC(C(=O)N[C@@H](CC1CCCCC1)C(=O)NCCN1CCc2cc(F)ccc21)c1ccc(O)cc1 (stereo partly drawn) [Compound 101, N-{2-cyclohexyl-1-(S)-[2-(5-fluoro-2,3-dihydro-indol-1-yl)-ethylcarbamoyl]-ethyl}-2-(4-hydroxy-phenyl)-propionamide]	> 10	< 0.1	< 0.1	> 10	< 10
COc1cccc(C(=O)N[C@@H](CC2CCCCC2)C(=O)N[C@@H](CN2CCOCC2)CN2CCc3cc(F)ccc32)c1 [Compound 151, N-{2-Cyclohexyl-1-(S)-[2-(5-fluoro-2,3-dihydro-indol-1-yl)-1-(S)-morpholin-4-ylmethyl-ethylcarbamoyl]-ethyl}-3-methoxy-benzamide]	> 10	< 0.1	< 0.1	< 10	< 0.1
